Data published in PubChem BioAssay AID1919005 (Molecular Pharmacology Branch, DTP, NCI, 2023).
One block for each molecule: values may come before it.

Test system: 855422-203-R-J1-PDC complex spheroid growth
Test: Anticancer human tumor 855422-203-R-J1-PDC patient-derived bladder carcinoma cell line growth inhibition [AhR]
Conditions: for IC50: curve of first compound; for viability, T/C: stronger effect = lower value
Procedure, shortened: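 Spheroids combined tumor cells with HUVEC endothelial cells and human MSCs as stroma. AhR antagonists were paired with standard or investigational drugs, each dosed in half-log steps down from near clinical Cmax, or from 10 microM where Cmax was unknown.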

[1] = second compound 0.1 µM, first compound 0.0316 µM
[2] = second compound 0.1 µM, first compound 0.1 µM
[3] = second compound 0.316 µM, first compound 0.0316 µM
[4] = second compound 0.316 µM, first compound 0.1 µM
[5] = second compound 1 µM, first compound 0.0316 µM
[6] = second compound 1 µM, first compound 0.1 µM
[7] = second compound 3.16 µM, first compound 0.0316 µM
[8] = second compound 3.16 µM, first compound 0.1 µM
[9] = second compound 10 µM, first compound 0.0316 µM
[10] = second compound 10 µM, first compound 0.1 µM
[11] = second compound 0.1 µM, first compound 0.316 µM
[12] = second compound 0.1 µM, first compound 1 µM
[13] = second compound 0.1 µM, first compound 3.16 µM
[14] = second compound 0.1 µM, first compound 10 µM
[15] = second compound 0.316 µM, first compound 0.316 µM
[16] = second compound 0.316 µM, first compound 1 µM
[17] = second compound 0.316 µM, first compound 3.16 µM
[18] = second compound 0.316 µM, first compound 10 µM
[19] = second compound 1 µM, first compound 0.316 µM
[20] = second compound 1 µM, first compound 1 µM
[21] = second compound 1 µM, first compound 3.16 µM
[22] = second compound 1 µM, first compound 10 µM
[23] = second compound 3.16 µM, first compound 0.316 µM
[24] = second compound 3.16 µM, first compound 1 µM
[25] = second compound 3.16 µM, first compound 3.16 µM
[26] = second compound 3.16 µM, first compound 10 µM
[27] = second compound 10 µM, first compound 0.316 µM
[28] = second compound 10 µM, first compound 1 µM
[29] = second compound 10 µM, first compound 3.16 µM
[30] = second compound 10 µM, first compound 10 µM
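Further: spheroids exposed to agents for seven days before readout.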
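Wherever viability, T/C is given: percent of DMSO vehicle control luminescence viability.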

IC50 (second compound 0.1 µM): 2660 nM
IC50 (second compound 0.316 µM): 2310 nM
IC50 (second compound 1 µM): 2010 nM
IC50 (second compound 3.16 µM): 475 nM
IC50 (second compound 10 µM): < 31.6 nM
Compound: Nc1ccccc1NC(=O)c1ccc(CNC(=O)OCc2cccnc2)cc1 + Cc1cncc(-c2nc(NCCc3c[nH]c4ccccc34)c3ncn(C(C)C)c3n2)c1
viability, T/C [1]: 88.7%
viability, T/C [2]: 81.7%
viability, T/C [11]: 76.4%
viability, T/C [12]: 74.3%
viability, T/C [13]: 45.2%
viability, T/C [14]: 5.46%
viability, T/C [3]: 86.9%
viability, T/C [4]: 83.7%
viability, T/C [15]: 69.5%
viability, T/C [16]: 76.4%
viability, T/C [17]: 40.7%
viability, T/C [18]: 5.76%
viability, T/C [5]: 88.7%
viability, T/C [6]: 87.9%
viability, T/C [19]: 78.2%
viability, T/C [20]: 73.9%
viability, T/C [21]: 35.4%
viability, T/C [22]: 4.53%
viability, T/C [7]: 82.2%
viability, T/C [8]: 73.8%
viability, T/C [23]: 63.9%
viability, T/C [24]: 26.4%
viability, T/C [25]: 22.1%
viability, T/C [26]: 5.42%
viability, T/C [9]: 7.49%
viability, T/C [10]: 5.93%
viability, T/C [27]: 0.88%
viability, T/C [28]: 0.3%
viability, T/C [29]: 0.17%
viability, T/C [30]: 0.17%

IC50 (second compound 0.1 µM): > 10000 nM
IC50 (second compound 0.316 µM): > 10000 nM
IC50 (second compound 1 µM): > 10000 nM
IC50 (second compound 3.16 µM): > 10000 nM
IC50 (second compound 10 µM): < 31.6 nM
Compound: O=C(c1cc(Cc2n[nH]c(=O)c3ccccc23)ccc1F)N1CCN(C(=O)C2CC2)CC1 + Cc1cncc(-c2nc(NCCc3c[nH]c4ccccc34)c3ncn(C(C)C)c3n2)c1
viability, T/C [1]: 106%
viability, T/C [2]: 102%
viability, T/C [11]: 99.6%
viability, T/C [12]: 103%
viability, T/C [13]: 108%
viability, T/C [14]: 90.9%
viability, T/C [3]: 102%
viability, T/C [4]: 109%
viability, T/C [15]: 101%
viability, T/C [16]: 93.7%
viability, T/C [17]: 101%
viability, T/C [18]: 86.7%
viability, T/C [5]: 98.2%
viability, T/C [6]: 93%
viability, T/C [19]: 103%
viability, T/C [20]: 87.9%
viability, T/C [21]: 94.7%
viability, T/C [22]: 89.5%
viability, T/C [7]: 78.6%
viability, T/C [8]: 83.6%
viability, T/C [23]: 75.9%
viability, T/C [24]: 71.2%
viability, T/C [25]: 89.8%
viability, T/C [26]: 78.6%
viability, T/C [9]: 16.8%
viability, T/C [10]: 12.5%
viability, T/C [27]: 7.7%
viability, T/C [28]: 3.22%
viability, T/C [29]: 6.34%
viability, T/C [30]: 5.85%

Further lines, the molecule ahead of its results:

Compound: CC[C@@]1(O)C(=O)OCc2c1cc1n(c2=O)Cc2cc3c(CN(C)C)c(O)ccc3nc2-1 + Cc1cncc(-c2nc(NCCc3c[nH]c4ccccc34)c3ncn(C(C)C)c3n2)c1
IC50 (second compound 0.1 µM): 37.8 nM
IC50 (second compound 0.316 µM): 33.7 nM
IC50 (second compound 1 µM): 25.7 nM
IC50 (second compound 3.16 µM): 18.1 nM
IC50 (second compound 10 µM): < 0.316 nM
viability, T/C (second compound 0.1 µM, first compound 0.000316 µM): 95.4%
viability, T/C (second compound 0.1 µM, first compound 0.001 µM): 85.9%
viability, T/C (second compound 0.1 µM, first compound 0.00316 µM): 103%
viability, T/C (second compound 0.1 µM, first compound 0.01 µM): 91.5%
viability, T/C [1]: 56.8%
viability, T/C [2]: 13.1%
viability, T/C (second compound 0.316 µM, first compound 0.000316 µM): 89.6%
viability, T/C (second compound 0.316 µM, first compound 0.001 µM): 87.1%
viability, T/C (second compound 0.316 µM, first compound 0.00316 µM): 93.6%
viability, T/C (second compound 0.316 µM, first compound 0.01 µM): 89.6%
viability, T/C [3]: 52.2%
viability, T/C [4]: 11.6%
viability, T/C (second compound 1 µM, first compound 0.000316 µM): 91.4%
viability, T/C (second compound 1 µM, first compound 0.001 µM): 90.6%
viability, T/C (second compound 1 µM, first compound 0.00316 µM): 80.8%
viability, T/C (second compound 1 µM, first compound 0.01 µM): 78.1%
viability, T/C [5]: 43.6%
viability, T/C [6]: 12%
viability, T/C (second compound 3.16 µM, first compound 0.000316 µM): 77.3%
viability, T/C (second compound 3.16 µM, first compound 0.001 µM): 83.7%
viability, T/C (second compound 3.16 µM, first compound 0.00316 µM): 74.3%
viability, T/C (second compound 3.16 µM, first compound 0.01 µM): 68.5%
viability, T/C [7]: 33%
viability, T/C [8]: 11.7%
viability, T/C (second compound 10 µM, first compound 0.000316 µM): 13.4%
viability, T/C (second compound 10 µM, first compound 0.001 µM): 8.89%
viability, T/C (second compound 10 µM, first compound 0.00316 µM): 4.65%
viability, T/C (second compound 10 µM, first compound 0.01 µM): 6.18%
viability, T/C [9]: 3.7%
viability, T/C [10]: 1.73%

Compound: CCc1c2c(nc3ccc(O)cc13)-c1cc3c(c(=O)n1C2)COC(=O)[C@]3(O)CC + Cc1cncc(-c2nc(NCCc3c[nH]c4ccccc34)c3ncn(C(C)C)c3n2)c1
IC50 (second compound 0.1 µM): 2.9 nM
IC50 (second compound 0.316 µM): 1.98 nM
IC50 (second compound 1 µM): 1.81 nM
IC50 (second compound 3.16 µM): 1.09 nM
IC50 (second compound 10 µM): < 0.949 nM
viability, T/C (second compound 0.1 µM, first compound 0.000949 µM): 99.6%
viability, T/C (second compound 0.1 µM, first compound 0.003 µM): 48.6%
viability, T/C (second compound 0.1 µM, first compound 0.00949 µM): 12.1%
viability, T/C (second compound 0.1 µM, first compound 0.03 µM): 9.21%
viability, T/C (second compound 0.1 µM, first compound 0.0949 µM): 6.44%
viability, T/C (second compound 0.1 µM, first compound 0.3 µM): 3.75%
viability, T/C (second compound 0.316 µM, first compound 0.000949 µM): 76.5%
viability, T/C (second compound 0.316 µM, first compound 0.003 µM): 35%
viability, T/C (second compound 0.316 µM, first compound 0.00949 µM): 9.9%
viability, T/C (second compound 0.316 µM, first compound 0.03 µM): 10%
viability, T/C (second compound 0.316 µM, first compound 0.0949 µM): 6.31%
viability, T/C (second compound 0.316 µM, first compound 0.3 µM): 4.22%
viability, T/C (second compound 1 µM, first compound 0.000949 µM): 72.3%
viability, T/C (second compound 1 µM, first compound 0.003 µM): 32.6%
viability, T/C (second compound 1 µM, first compound 0.00949 µM): 11.4%
viability, T/C (second compound 1 µM, first compound 0.03 µM): 9.74%
viability, T/C (second compound 1 µM, first compound 0.0949 µM): 6.96%
viability, T/C (second compound 1 µM, first compound 0.3 µM): 4.13%
viability, T/C (second compound 3.16 µM, first compound 0.000949 µM): 54.2%
viability, T/C (second compound 3.16 µM, first compound 0.003 µM): 22.2%
viability, T/C (second compound 3.16 µM, first compound 0.00949 µM): 10.7%
viability, T/C (second compound 3.16 µM, first compound 0.03 µM): 4.55%
viability, T/C (second compound 3.16 µM, first compound 0.0949 µM): 5.79%
viability, T/C (second compound 3.16 µM, first compound 0.3 µM): 3.2%
viability, T/C (second compound 10 µM, first compound 0.000949 µM): 3.26%
viability, T/C (second compound 10 µM, first compound 0.003 µM): 2.2%
viability, T/C (second compound 10 µM, first compound 0.00949 µM): 3.05%
viability, T/C (second compound 10 µM, first compound 0.03 µM): 0.55%
viability, T/C (second compound 10 µM, first compound 0.0949 µM): 1.43%
viability, T/C (second compound 10 µM, first compound 0.3 µM): 1.83%

Compound: Nc1ccn(C2OC(CO)C(O)C2(F)F)c(=O)n1 (stereo not given) + Cc1cncc(-c2nc(NCCc3c[nH]c4ccccc34)c3ncn(C(C)C)c3n2)c1
IC50 (second compound 0.1 µM): 48.3 nM
IC50 (second compound 0.316 µM): 46.3 nM
IC50 (second compound 1 µM): 42.5 nM
IC50 (second compound 3.16 µM): 59.5 nM
IC50 (second compound 10 µM): < 31.6 nM
viability, T/C [1]: 65.8%
viability, T/C [2]: 22.5%
viability, T/C [11]: 15.1%
viability, T/C [12]: 12.1%
viability, T/C [13]: 10.7%
viability, T/C [14]: 7.08%
viability, T/C [3]: 61.6%
viability, T/C [4]: 26.9%
viability, T/C [15]: 12.9%
viability, T/C [16]: 12.8%
viability, T/C [17]: 10.2%
viability, T/C [18]: 7.37%
viability, T/C [5]: 59.6%
viability, T/C [6]: 22.8%
viability, T/C [19]: 13.5%
viability, T/C [20]: 9.62%
viability, T/C [21]: 10.7%
viability, T/C [22]: 8.49%
viability, T/C [7]: 65.2%
viability, T/C [8]: 37.5%
viability, T/C [23]: 16.2%
viability, T/C [24]: 8.68%
viability, T/C [25]: 11.6%
viability, T/C [26]: 9.18%
viability, T/C [9]: 6.33%
viability, T/C [10]: 1.93%
viability, T/C [27]: 1.21%
viability, T/C [28]: 0.96%
viability, T/C [29]: 2.26%
viability, T/C [30]: 2.09%
